Reference: patent US7058616B1, “Method and system for predicting resistance of a disease to a therapeutic agent using a neural network” (Virco Bvba, priority 2000, dated 2006)

Tests used:
HIV-1 [1] = assay: MT-4 cell viral cytopathic effect protection assay, phenotypic susceptibility of patient recombinant virus; format: cell-based
Protocol: Phenotypic susceptibility was determined using a MT-4 cell viral cytopathic effect protection assay. See, e.g., Kashiwase et al., Chemotherapy 45(1):48–55 (1999), expressly incorporated herein by reference; Larder et al., Antimicrob. Agents Chemother. 43(8):1961–1967 (1999).

HIV-1 [2] = conditions: cited from earlier work; for Effect of 333D/E mutation: reverses the M184V effect
[3] = Table 13/14 sample 1: 10I,71V,73S,84V,90M, 63P,85V,93L
[4] = Table 13/14 sample 7: 71V,73S,90M, 20I,63P

## Nc1ccn([C@@H]2CS[C@H](CO)O2)c(=O)n1 [3TC]
HIV-1 [1]; Table 3 testing sample 1
  actual phenotype resistance level: S/S (A fold resistance of less than or equal to 4 is considered to be “sensitive,”)
HIV-1 [1]; Table 3 testing sample 2
  actual phenotype resistance level: R/R (if the value is greater than 10, it is considered to be “resistant.”)
HIV-1 [1]; Table 3 testing sample 3
  actual phenotype resistance level: R/R (if the value is greater than 10, it is considered to be “resistant.”)
HIV-1 [1]; Table 3 testing sample 4
  actual phenotype resistance level: S/S (A fold resistance of less than or equal to 4 is considered to be “sensitive,”)
HIV-1 [1]; Table 3 testing sample 5
  actual phenotype resistance level: R/R (if the value is greater than 10, it is considered to be “resistant.”)
HIV-1 [1]; Table 3 testing sample 6
  actual phenotype resistance level: R (if the value is greater than 10, it is considered to be “resistant.”)
HIV-1 [1]; Table 3 testing sample 7
  actual phenotype resistance level: R/R (if the value is greater than 10, it is considered to be “resistant.”)
HIV-1 [1]; Table 3 testing sample 8
  actual phenotype resistance level: R/R (if the value is greater than 10, it is considered to be “resistant.”)
HIV-1 [1]; Table 3 testing sample 9
  actual phenotype resistance level: R/R (if the value is greater than 10, it is considered to be “resistant.”)
HIV-1 [1]; Table 3 testing sample 10
  actual phenotype resistance level: S/S (A fold resistance of less than or equal to 4 is considered to be “sensitive,”)
HIV-1 [2]
  Effect of M184V mutation on 3TC susceptibility: confers resistance
  Effect of 333D/E mutation: dual AZT/3TC resistance

## Cc1cn([C@H]2C[C@H](N=[N+]=[N-])[C@@H](CO)O2)c(=O)[nH]c1=O [AZT, 3′-azido-3′-deoxythymidine]
HIV-1 [2]
  Effect of M184V mutation on AZT resistance: reverses AZT resistance
  Effect of 333D/E mutation: dual AZT/3TC resistance

## Cc1c(O)cccc1C(=O)N[C@@H](CSc1ccccc1)[C@H](O)CN1C[C@H]2CCCC[C@H]2C[C@H]1C(=O)NC(C)(C)C [Nelfinavir]
HIV-1 [1]; PI test sample 2
  actual phenotype resistance level: R/R (if the value is greater than 10, it is considered to be ‘resistant’)
HIV-1 [1]; PI test sample 3
  actual phenotype resistance level: R/R (if the value is greater than 10, it is considered to be ‘resistant’)
HIV-1 [1]; PI test sample 4
  actual phenotype resistance level: R/R (if the value is greater than 10, it is considered to be ‘resistant’)
HIV-1 [1]; PI test sample 5
  actual phenotype resistance level: R/R (if the value is greater than 10, it is considered to be ‘resistant’)
HIV-1 [1]; PI test sample 7
  actual phenotype resistance level: R/R (if the value is greater than 10, it is considered to be ‘resistant’)
HIV-1 [1]; PI test sample 8
  actual phenotype resistance level: R/R (if the value is greater than 10, it is considered to be ‘resistant’)
HIV-1 [1]; PI test sample 9
  actual phenotype resistance level: R/R (if the value is greater than 10, it is considered to be ‘resistant’)
HIV-1 [1]; PI test sample 10
  actual phenotype resistance level: R (if the value is greater than 10, it is considered to be ‘resistant’)
HIV-1 [1]; PI test sample 11
  actual phenotype resistance level: I/I (greater than 4 and less than 10 is considered to be ‘intermediate’)
HIV-1 [1]; PI test sample 13
  actual phenotype resistance level: R/R (if the value is greater than 10, it is considered to be ‘resistant’)
HIV-1 [1]; PI test sample 14
  actual phenotype resistance level: R/R (if the value is greater than 10, it is considered to be ‘resistant’)
HIV-1 [1]; PI test sample 15
  actual phenotype resistance level: R/R (if the value is greater than 10, it is considered to be ‘resistant’)
HIV-1 [1]; PI test sample 16
  actual phenotype resistance level: R/R (if the value is greater than 10, it is considered to be ‘resistant’)
HIV-1 [1]; PI test sample 17
  actual phenotype resistance level: R/R (if the value is greater than 10, it is considered to be ‘resistant’)
HIV-1 [1]; PI test sample 18
  actual phenotype resistance level: R/R (if the value is greater than 10, it is considered to be ‘resistant’)
HIV-1 [1]; PI test sample 19
  actual phenotype resistance level: R (if the value is greater than 10, it is considered to be ‘resistant’)
HIV-1 [1]; PI test sample 19, listed as NFV
  actual phenotype resistance level: R/R (if the value is greater than 10, it is considered to be ‘resistant’)
HIV-1 [1]; PI test sample 20
  actual phenotype resistance level: R/R (if the value is greater than 10, it is considered to be ‘resistant’)
HIV-1 [1]; PI test sample 21
  actual phenotype resistance level: R/R (if the value is greater than 10, it is considered to be ‘resistant’)
HIV-1 [1]; PI test sample 22
  actual phenotype resistance level: R (if the value is greater than 10, it is considered to be ‘resistant’)
HIV-1 [1]; PI test sample 23
  actual phenotype resistance level: R/R (if the value is greater than 10, it is considered to be ‘resistant’)
HIV-1 [1]; PI test sample 24
  actual phenotype resistance level: R/R (if the value is greater than 10, it is considered to be ‘resistant’)
HIV-1 [1]; PI test sample 25
  actual phenotype resistance level: R/R (if the value is greater than 10, it is considered to be ‘resistant’)
HIV-1 [1]; PI test sample 26
  actual phenotype resistance level: R/R (if the value is greater than 10, it is considered to be ‘resistant’)
HIV-1 [1]; PI test sample 32
  actual phenotype resistance level: R/R (if the value is greater than 10, it is considered to be ‘resistant’)
HIV-1 [1]; PI test sample 33
  actual phenotype resistance level: R/R (if the value is greater than 10, it is considered to be ‘resistant’)
HIV-1 [1]; PI test sample 34
  actual phenotype resistance level: R/R (if the value is greater than 10, it is considered to be ‘resistant’)
HIV-1 [1]; PI test sample 35
  actual phenotype resistance level: R/R (if the value is greater than 10, it is considered to be ‘resistant’)
HIV-1 [1]; PI test sample 36
  actual phenotype resistance level: R/R (if the value is greater than 10, it is considered to be ‘resistant’)
HIV-1 [1]; PI test sample 37
  actual phenotype resistance level: R/R (if the value is greater than 10, it is considered to be ‘resistant’)
HIV-1 [1]; PI test sample 38
  actual phenotype resistance level: R/R (if the value is greater than 10, it is considered to be ‘resistant’)
HIV-1 [1]; PI test sample 39
  actual phenotype resistance level: R/R (if the value is greater than 10, it is considered to be ‘resistant’)
HIV-1 [1]; PI test sample 40
  actual phenotype resistance level: R/R (if the value is greater than 10, it is considered to be ‘resistant’)
HIV-1 [1]; PI test sample 41
  actual phenotype resistance level: R/R (if the value is greater than 10, it is considered to be ‘resistant’)
HIV-1 [1]; PI test sample 42
  actual phenotype resistance level: I/I (greater than 4 and less than 10 is considered to be ‘intermediate’)
HIV-1 [1]; PI test sample 44
  actual phenotype resistance level: R/R (if the value is greater than 10, it is considered to be ‘resistant’)
HIV-1 [1]; PI test sample 45
  actual phenotype resistance level: R/R (if the value is greater than 10, it is considered to be ‘resistant’)
HIV-1 [1]; Table 3 testing sample 1
  actual phenotype resistance level: S/S (A fold resistance of less than or equal to 4 is considered to be “sensitive,”)
HIV-1 [1]; Table 3 testing sample 4
  actual phenotype resistance level: R/R (if the value is greater than 10, it is considered to be “resistant.”)
HIV-1 [1]; Table 3 testing sample 5
  actual phenotype resistance level: R/R (if the value is greater than 10, it is considered to be “resistant.”)
HIV-1 [1]; Table 3 testing sample 6
  actual phenotype resistance level: R/R (if the value is greater than 10, it is considered to be “resistant.”)
HIV-1 [1]; Table 3 testing sample 7
  actual phenotype resistance level: S/S (A fold resistance of less than or equal to 4 is considered to be “sensitive,”)
HIV-1 [1]; Table 3 testing sample 8
  actual phenotype resistance level: R/R (if the value is greater than 10, it is considered to be “resistant.”)
HIV-1 [1]; Table 3 testing sample 10
  actual phenotype resistance level: R/R (if the value is greater than 10, it is considered to be “resistant.”)
HIV-1 [1]; [3]
  actual phenotype: R (if the value is greater than 10, it is considered to be ‘resistant’)
HIV-1 [1]; Table 13/14 sample 3: 10I, 36V,93L
  actual phenotype: R (if the value is greater than 10, it is considered to be ‘resistant’)
HIV-1 [1]; Table 13/14 sample 5: 10V,30N, 13V,63P
  actual phenotype: R (if the value is greater than 10, it is considered to be ‘resistant’)
HIV-1 [1]; [4]
  actual phenotype: R (if the value is greater than 10, it is considered to be ‘resistant’)
HIV-1 [1]; Table 13/14 sample 10: 46I,71V,73S,90M, 20I,63P,93L
  actual phenotype: R (if the value is greater than 10, it is considered to be ‘resistant’)
HIV-1 [1]; Table 13/14 sample 18: 36I,71T,90M, 63P,93L
  actual phenotype: R (if the value is greater than 10, it is considered to be ‘resistant’)
HIV-1 [1]; Table 13/14 sample 20: 77I,88S, 13V, 63P, 93L
  actual phenotype: R (if the value is greater than 10, it is considered to be ‘resistant’)

## CC(C)c1nc(CN(C)C(=O)N[C@H](C(=O)N[C@@H](Cc2ccccc2)C[C@H](O)[C@H](Cc2ccccc2)NC(=O)OCc2cncs2)C(C)C)cs1 [Ritonavir]
HIV-1 [1]; Table 13/14 sample 2: 10I,46I,48V,77I,82A,90M, 10E,58E,63T
  actual phenotype: S (A fold resistance of less than or equal to 4 is considered to be ‘sensitive’)
HIV-1 [1]; Table 13/14 sample 6: 10I,48V,54V,82A, 13V
  actual phenotype: R (if the value is greater than 10, it is considered to be ‘resistant’)
HIV-1 [1]; [4]
  actual phenotype: I (greater than 4 and less than 10 is considered to be ‘intermediate’)
HIV-1 [1]; Table 13/14 sample 14: 10I,46I,71T,77I,90M, 57K,63P,93L
  actual phenotype: S (A fold resistance of less than or equal to 4 is considered to be ‘sensitive’)
HIV-1 [1]; Table 13/14 sample 17: 46I,77I,90M, 10F,20L,63P
  actual phenotype: I (greater than 4 and less than 10 is considered to be ‘intermediate’)

## CC(C)(C)NC(=O)[C@@H]1C[C@@H]2CCCC[C@@H]2CN1C[C@@H](O)[C@H](Cc1ccccc1)NC(=O)[C@H](CC(N)=O)NC(=O)c1ccc2ccccc2n1 [Saquinavir]
HIV-1 [1]; [3]
  actual phenotype: R (if the value is greater than 10, it is considered to be ‘resistant’)
HIV-1 [1]; Table 13/14 sample 9: 10I,46L,54V,71V,82A,90M, 63P,93L
  actual phenotype: S (A fold resistance of less than or equal to 4 is considered to be ‘sensitive’)
HIV-1 [1]; Table 13/14 sample 11: 10I,46L,54V,71V,77I,82A,90M, 55R,58E,63P,93L
  actual phenotype: R (if the value is greater than 10, it is considered to be ‘resistant’)
HIV-1 [1]; Table 13/14 sample 19: 54V,71V,82A, 63P,93L
  actual phenotype: I (greater than 4 and less than 10 is considered to be ‘intermediate’)
